# According to patent publication US20090088380A1, “GHRH ANALOGS AND THERAPEUTIC USES THEREOF” (priority 2007, published 2009):
# Read-outs that look alike come from different tables or passages of the source. Non-standard residues stand in square brackets, D forms with d. Residues, ends and D or L forms follow the SMILES beside them. No end group written: not given here.
# How the values were obtained:
# [1] = target: T1, hGHRH(1-44)-NH2 binding sites in rat anterior pituitary (Rattus norvegicus, UniProt Q02644); assay: Relative binding affinity in rat anterior pituitary preparations, [125I-Tyr10]hGHRH(1-44)-NH2 radioligand; conditions: values compared to hGHRH(1-29)-NH2
# T1 construct: from tissue; host or cells: anterior pituitary of 2-month old male Sprague Dawley rats
# T1 sequence (Q02644 23-423 isoform Q02644-2 limits assumed): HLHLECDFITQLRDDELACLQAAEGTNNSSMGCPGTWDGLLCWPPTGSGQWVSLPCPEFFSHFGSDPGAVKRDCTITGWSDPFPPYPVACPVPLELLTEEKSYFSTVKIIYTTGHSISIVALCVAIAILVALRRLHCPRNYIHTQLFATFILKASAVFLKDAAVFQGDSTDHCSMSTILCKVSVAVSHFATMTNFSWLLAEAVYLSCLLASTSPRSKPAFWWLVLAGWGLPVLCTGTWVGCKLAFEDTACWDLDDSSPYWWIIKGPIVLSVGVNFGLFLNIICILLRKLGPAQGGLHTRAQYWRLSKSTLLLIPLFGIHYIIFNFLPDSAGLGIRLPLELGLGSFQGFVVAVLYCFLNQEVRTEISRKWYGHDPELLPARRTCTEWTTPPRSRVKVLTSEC
# Description: Initial selection of a candidate from the original 14 polysubstituted GHRH analogs described in the U.S. Pat. No. 5,854,216 was based upon in vitro data on receptor affinity in 2-month old male Sprague Dawley rat anterior pituitary preparations. The embodiments are based on the affinity of selected GHRH analogs for the human GHRH receptor (hGHRH-R) in baby hamster kidney (BHK) cells transfected with hGHRH-R, and on resistance to proteolysis in rat serum, human plasma or human serum. More precisely, the preferred drug candidates were selected, as compared to hGHRH(1-29)-NH2, for: i-their increased relative binding affinity to hGHRH(1-44)-NH2 binding sites in rat anterior pituitary in vitro as well as to hGHRH-R in BHK-expressing cells in vitro; and ii-their relative resistance to proteolysis in vitro.
# [2] = In vitro proteolysis assay in rat serum; format: in vitro ADME; conditions: for Relative resistance to proteolysis in vitro: compared to hGHRH(1-29)-NH2; for Residual concentration (% of initial concentration): incubation 0 min
# Description: Proteolysis was stopped by adding 800 μl of ice-cold stop buffer (potassium-phosphate buffer, acidified to pH 0.8 with trifluoroacetic acid (TFA) and boiling 5 min (rat serum only). After centrifugation (12000 g, 5 min, 4° C.) (rat serum only), serum-peptide mixtures were passed through a conditioned Sep-Pak C-18 cartridge to extract native GHRH or a GHRH analog residual concentrations from serum proteins. The native GHRH or the analog was eluted in 2 ml of 50% acetonitrile-0.01% TFA/50% 0.01% aqueous TFA. 200 μl of extracted peptide, representing 1 μg of GHRH or analog at time 0, was quantified by analytical HPLC, using one μ-Bondapak C18 column (10 μm particle size, 0.39×15 cm) (rat serum) or two C18 columns in series (human serum and plasma) and a binary solvent system composed of NaClO4 0.01 M, pH 2.5 and acetonitrile. A linear gradient from 30 to 60% acetonitrile over 45 min (rat serum) or 30 to 50% (human serum and plasma) was used. Elution of intact peptide was monitored at 214 nm and residual concentration determined by assessment of peak surface areas.
# human GHRH receptor = target: T2, human GHRH receptor (Homo sapiens, UniProt Q02643); assay: 125I-GHRH competitive binding assay in BHK cell membrane preparations; conditions: in comparison with hGHRH(1-29)NH2; ratio IC50 hGHRH(1-29)-NH2/IC50 analog
# T2 construct: expressed in transfected cells; host or cells: BHK (baby hamster kidney) 570 cells, membrane preparations
# T2 sequence (Q02643 23-423): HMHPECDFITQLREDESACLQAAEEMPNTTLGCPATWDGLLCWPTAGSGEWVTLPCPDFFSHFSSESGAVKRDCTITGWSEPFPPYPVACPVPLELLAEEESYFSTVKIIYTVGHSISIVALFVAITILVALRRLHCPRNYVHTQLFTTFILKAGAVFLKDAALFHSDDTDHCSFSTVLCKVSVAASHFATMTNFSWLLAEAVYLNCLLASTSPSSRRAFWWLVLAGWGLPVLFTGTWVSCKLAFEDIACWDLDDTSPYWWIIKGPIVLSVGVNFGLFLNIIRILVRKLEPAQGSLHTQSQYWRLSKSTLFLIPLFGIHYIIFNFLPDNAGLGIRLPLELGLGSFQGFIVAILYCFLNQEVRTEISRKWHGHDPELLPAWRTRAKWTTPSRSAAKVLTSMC
# Description: Non specific binding was determined in presence of 1 μM hGHRH(1-29)NH2. Incubation was carried out at equilibrium (23° C., 60 min) and stopped by centrifugation (12,000 g, 5 min, at 4° C.). The radioactivity content in pellets was determined by gamma counting. The affinity of hGHRH(1-29) NH2 was tested in each experiment to assess the validity of the assay and determine the relative affinity of the analogs.
# Values represent the mean±SEM of 3 experiments performed in triplicate for the analogs and the mean±SEM of 2 experiments performed in triplicate for hGHRH(1-44) NH2.
# For the binding assay results presented in Tables 8 to 11, values represent the mean±SEM of 8 independent experiments performed in triplicate for the analogs and the mean±SEM of 4 experiments performed in triplicate for hGHRH(1-29)NH2. […] The relative affinity was obtained by taking the ratio IC50 of hGHRH (1-29)-NH2/IC50 analog.
# [3] = target: human GHRH receptor (human) (UniProt Q02643); assay: competition with [125I-Tyr10]hGHRH(1-44)NH2, BHK cell membrane preparations expressing the human GHRH receptor
# [4] = target: human GHRH receptor (human) (UniProt Q02643); assay: as above; remark: listed apart in the source
# rat GHRH receptor (rat) = rat GHRH receptor (rat) (UniProt Q02644); assay: competition with [125I-Tyr10]hGHRH(1-44)-NH2, rat anterior pituitary membrane preparations
Relative binding affinity in rat anterior pituitary [1],Relative resistance to proteolysis in vitro [2],Residual concentration (% of initial concentration) [2],Relative binding affinity (R1) in hGHRH-R BHK-expressing cells (human GHRH receptor),IC50 [3] [pM],IC50 [4] [pM],Relative binding affinity (R1) in comparison with hGHRH(1-29)NH2 ([4]; scale: ratio IC50 of hGHRH),Relative binding affinity in rat anterior pituitary (relative to hGHRH(1-29)-NH2) (rat GHRH receptor (rat)),Compound
5.00 ± 0.91,6.06,100 ± 0 % of initial concentration,0.05 ± 0.01,–,–,–,–,"CC[C@H](C)[C@H](NC(=O)[C@H](C)NC(=O)[C@H](CC(=O)O)NC(=O)[C@@H](C)NC(=O)[C@@H](N)Cc1ccc(O)cc1)C(=O)N[C@@H](Cc1ccccc1)C(=O)N[C@H](C(=O)N[C@@H](C)C(=O)N[C@@H](CO)C(=O)N[C@H](Cc1ccc(O)cc1)C(=O)N[C@@H](CCCNC(=N)N)C(=O)N[C@@H](CCCCN)C(=O)N[C@H](C(=O)N[C@@H](CC(C)C)C(=O)N[C@@H](C)C(=O)N[C@@H](CCC(N)=O)C(=O)N[C@@H](CC(C)C)C(=O)N[C@@H](CO)C(=O)N[C@@H](C)C(=O)N[C@@H](CCCNC(=N)N)C(=O)N[C@H](CCCCN)C(=O)N[C@@H](CCCCN)C(=O)N[C@@H](CC(C)C)C(=O)N[C@@H](CCC(N)=O)C(=O)N[C@@H](CC(=O)O)C(=O)N[C@H](C(=O)N[C@@H](CCSC)C(=O)N[C@@H](CO)C(=O)N[C@@H](CCCNC(=N)N)C(N)=O)[C@@H](C)CC)C(C)C)[C@@H](C)O [GHRH analog #4, [D-Ala^2, Ala^8, D-Tyr^10, Ala^15, D-Lys^21, Lys^22] hGHRH(1-29)-NH2] (H-Y[dA]DAIFTAS[dY]RKVLAQLSAR[dK]KLQDIMSR-NH2; N-terminus assumed)"
–,–,–,–,1.2,6,939,1.04,"[D-Ala2, D-Tyr10, D-Ala15, Lys22] hGHRH(1-29)-NH2 (peptide)"
4.90 ± 2.70,2.25,100 ± 0 % of initial concentration,239 ± 55,–,–,–,–,"CC[C@H](C)[C@H](NC(=O)[C@H](C)NC(=O)[C@H](CC(=O)O)NC(=O)[C@@H](C)NC(=O)[C@@H](N)Cc1ccc(O)cc1)C(=O)N[C@@H](Cc1ccccc1)C(=O)N[C@H](C(=O)N[C@@H](CC(N)=O)C(=O)N[C@@H](CO)C(=O)N[C@H](Cc1ccc(O)cc1)C(=O)N[C@@H](CCCNC(=N)N)C(=O)N[C@@H](CCCCN)C(=O)N[C@H](C(=O)N[C@@H](CC(C)C)C(=O)NCC(=O)N[C@@H](CCC(N)=O)C(=O)N[C@@H](CC(C)C)C(=O)N[C@@H](CO)C(=O)N[C@@H](C)C(=O)N[C@@H](CCCNC(=N)N)C(=O)N[C@@H](CCCCN)C(=O)N[C@@H](CCCCN)C(=O)N[C@@H](CC(C)C)C(=O)N[C@@H](CCC(N)=O)C(=O)N[C@@H](CC(=O)O)C(=O)N[C@H](C(=O)N[C@@H](CCSC)C(=O)N[C@@H](CO)C(=O)N[C@@H](CCCNC(=N)N)C(N)=O)[C@@H](C)CC)C(C)C)[C@@H](C)O [GHRH analog #3, [D-Ala^2, D-Tyr^10, Lys^22] hGHRH(1-29)-NH2] (H-Y[dA]DAIFTNS[dY]RKVLGQLSARKKLQDIMSR-NH2; N-terminus assumed)"
13.33 ± 0.31,1.87,100 ± 0 % of initial concentration,499 ± 234,–,–,–,–,"CC[C@H](C)[C@H](NC(=O)[C@H](C)NC(=O)[C@H](CC(=O)O)NC(=O)[C@@H](C)NC(=O)[C@@H](N)Cc1ccc(O)cc1)C(=O)N[C@@H](Cc1ccccc1)C(=O)N[C@H](C(=O)N[C@@H](C)C(=O)N[C@@H](CO)C(=O)N[C@@H](Cc1ccc(O)cc1)C(=O)N[C@@H](CCCNC(=N)N)C(=O)N[C@@H](CCCCN)C(=O)N[C@H](C(=O)N[C@@H](CC(C)C)C(=O)N[C@@H](C)C(=O)N[C@@H](CCC(N)=O)C(=O)N[C@@H](CC(C)C)C(=O)N[C@@H](CO)C(=O)N[C@@H](C)C(=O)N[C@@H](CCCNC(=N)N)C(=O)N[C@@H](CCCCN)C(=O)N[C@@H](CCCCN)C(=O)N[C@@H](CC(C)C)C(=O)N[C@@H](CCC(N)=O)C(=O)N[C@@H](CC(=O)O)C(=O)N[C@H](C(=O)N[C@@H](CCSC)C(=O)N[C@@H](CO)C(=O)N[C@@H](CCCNC(=N)N)C(N)=O)[C@@H](C)CC)C(C)C)[C@@H](C)O [GHRH analog #1, [D-Ala^2, Ala^8, Ala^15, Lys^22] hGHRH(1-29)-NH2] (H-Y[dA]DAIFTASYRKVLAQLSARKKLQDIMSR-NH2; N-terminus assumed)"
7.74 ± 3.49,1.81,100 ± 0 % of initial concentration,3.70 ± 0.52,–,–,–,–,"YADAIFTAAYRKVLAQLSARKALQDIMSR-NH2 [GHRH analog #2, [Ala^8, Ala^9, Ala^15, Ala^22] hGHRH(1-29)-NH2]"
